{"source": "patent US10709709B2", "about": "“Substituted carbonucleoside derivatives useful as anticancer agents” (Pfizer Inc., priority 2016, dated 2020)", "note": "pIC50: −log10 of the molar value.", "data": [{"target": "PRMT5/MEP50 protein complex (Homo sapiens (Human), UniProt O14744)", "sequence (O14744 other isoform, or with tags, fused parts or gaps)": "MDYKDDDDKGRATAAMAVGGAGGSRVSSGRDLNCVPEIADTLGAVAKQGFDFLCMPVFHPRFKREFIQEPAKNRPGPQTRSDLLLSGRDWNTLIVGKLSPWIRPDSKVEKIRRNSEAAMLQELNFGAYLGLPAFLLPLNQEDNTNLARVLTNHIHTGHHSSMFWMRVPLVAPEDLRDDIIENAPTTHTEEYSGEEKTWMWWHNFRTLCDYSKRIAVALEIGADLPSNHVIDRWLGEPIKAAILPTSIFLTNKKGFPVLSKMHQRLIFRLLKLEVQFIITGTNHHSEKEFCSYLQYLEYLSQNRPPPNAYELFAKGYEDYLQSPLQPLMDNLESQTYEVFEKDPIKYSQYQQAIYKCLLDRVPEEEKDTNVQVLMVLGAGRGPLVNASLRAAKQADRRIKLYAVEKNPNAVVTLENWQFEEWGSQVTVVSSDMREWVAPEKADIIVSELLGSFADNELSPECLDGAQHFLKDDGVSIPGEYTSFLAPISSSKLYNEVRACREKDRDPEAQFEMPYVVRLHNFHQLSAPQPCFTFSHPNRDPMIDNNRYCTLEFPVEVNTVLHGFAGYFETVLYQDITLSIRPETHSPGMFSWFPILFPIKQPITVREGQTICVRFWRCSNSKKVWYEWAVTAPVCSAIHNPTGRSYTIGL", "sequence (Q9BQA1 whole entry partner)": "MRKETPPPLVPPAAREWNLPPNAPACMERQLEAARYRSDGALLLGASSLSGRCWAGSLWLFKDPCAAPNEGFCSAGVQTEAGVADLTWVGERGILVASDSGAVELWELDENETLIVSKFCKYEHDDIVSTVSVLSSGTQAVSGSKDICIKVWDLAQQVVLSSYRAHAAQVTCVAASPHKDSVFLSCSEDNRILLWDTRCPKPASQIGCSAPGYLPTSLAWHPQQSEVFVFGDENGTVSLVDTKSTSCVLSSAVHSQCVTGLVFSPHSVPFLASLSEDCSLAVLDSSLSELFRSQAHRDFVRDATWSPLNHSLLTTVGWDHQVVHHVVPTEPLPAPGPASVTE", "experiment": "PRMT5 biochemical assay (3H-SAM methylation of H4(1-21) peptide, filter plate scintillation)", "conditions": "10 nM PRMT5/MEP50 complex, 200 nM H4(1-21) peptide, 1 uM SAM, 25 minute incubation at room temperature", "procedure": "Biochemical Assay Methods\nCompounds were solubilized in DMSO and serially diluted, using 3-fold dilutions, into 100% DMSO at a concentration 50-fold greater than the desired assay concentration. Following dilution, 1 ul was added to an empty 96-well microtiter plate. PRMT5/MEP50 protein complex was combined with H4(1-21) peptide ([…]) in PRMT5 assay buffer (50 mM Tris pH 8.5, 50 mM NaCl, 5 mM MgCl2, 1 mM EDTA, 1 mM TCEP) and 44 ul was added to the microtiter plate containing compound. S-Adenosyl-L-methionine (SAM) was prepared by combining ^3H labelled SAM with unlabelled SAM in PRMT5 assay buffer such that the final SAM concentration was 10 uM and the specific activity was 0.2 uCi/ul. The reaction was initiated by adding 5 ul of SAM stock to the microtiter plate. The final reaction conditions were 10 nM PRMT5/MEP50 complex, 200 nM peptide and 1 uM SAM. Following a 25 minute incubation at room temperature, the reaction was stopped with the addition of 100 uL of 20% TCA. The 3H-peptide product was captured using a 96-well filter plate (MSIPN4B, Millipore) and washed 5 times with PBS buffer. Scintillation fluid (100 ul) was added to the dried filter plate and counted in a liquid scintillation counter. IC50 values were determined by fitting the data to the standard 4-parameter dose response equation using Pfizer proprietary software.\nResults for the biochemical assay of examples are summarized in Table 1, shown as IC50 values in μM.", "values": [{"smiles": "Cc1ncnc2c1ccn2[C@@H]1C[C@H](Oc2ccccc2CN)[C@@H](O)[C@H]1O", "note": "[Example 62, (1S,2S,3S,5R)-3-(2-(aminomethyl)phenoxy)-5-(4-methyl-7H-pyrrolo[2,3-d]pyrimidin-7-yl)cyclopentane-1,2-diol]", "pIC50": 7.60}, {"smiles": "Cc1ncnc2c1ccn2[C@@H]1C[C@H](Oc2cccc3c2CN[C@H](C)CO3)[C@@H](O)[C@H]1O", "note": "[Example 208, (1S,2S,3S,5R)-3-(((R)-3-methyl-2,3,4,5-tetrahydrobenzo[f][1,4]oxazepin-6-yl)oxy)-5-(4-methyl-7H-pyrrolo[2,3-d]pyrimidin-7-yl)cyclopentane-1,2-diol]", "pIC50": 8.10}, {"smiles": "Cc1ncnc2c1ccn2[C@@H]1C[C@H](Oc2ccc(F)cc2O)[C@@H](O)[C@H]1O", "note": "[Example 136, (1S,2S,3S,5R)-3-(4-fluoro-2-hydroxyphenoxy)-5-(4-methyl-7H-pyrrolo[2,3-d]pyrimidin-7-yl)cyclopentane-1,2-diol]", "pIC50": 4.95}, {"smiles": "Cc1ncnc2c1ccn2[C@@H]1C[C@H](Oc2nccc3c2CNCC3)[C@@H](O)[C@H]1O", "note": "[Example 157, (1S,2S,3R,5S)-3-(4-methyl-7H-pyrrolo[2,3-d]pyrimidin-7-yl)-5-((5,6,7,8-tetrahydro-2,7-naphthyridin-1-yl)oxy)cyclopentane-1,2-diol]", "pIC50": 8.40}, {"smiles": "Cc1nc(N)nc(N(C)[C@@H]2C[C@H]([C@H](O)c3ccc(F)c(F)c3)[C@@H](O)[C@H]2O)n1", "note": "[Example 41, (1R,2S,3R,5R)-3-[(4-amino-6-methyl-1,3,5-triazin-2-yl)(methyl)amino]-5-[(S)-(3,4-difluorophenyl) (hydroxy)methyl]cyclopentane-1,2-diol]", "pIC50": 7.34}, {"smiles": "CO[C@@H]1C[C@H](n2ccc3c(C)ncnc32)[C@@H](O)[C@H]1O", "note": "[Example 61, (1R,2R,3R,5S)-3-methoxy-5-(4-methyl-7H-pyrrolo[2,3-d]pyrimidin-7-yl)cyclopentane-1,2-diol]", "pIC50": 5.67}, {"smiles": "Cc1ncnc2c1ccn2[C@@H]1C[C@H](Oc2cc(C(C)(C)O)cc3c2CNCC3)[C@@H](O)[C@H]1O", "note": "[Example 97, (1S,2S,3S,5R)-3-((6-(2-hydroxypropan-2-yl)-1,2,3,4-tetrahydroisoquinolin-8-yl)oxy)-5-(4-methyl-7H-pyrrolo[2,3-d]pyrimidin-7-yl)cyclopentane-1,2-diol]", "pIC50": 7.19}, {"smiles": "Cc1ncnc2c1ccn2[C@H]1C[C@@H](Oc2ccccc2C#N)[C@H](O)[C@@H]1O", "note": "[Example 65, 2-(((1R,2R,3R,4S)-2,3-dihydroxy-4-(4-methyl-7H-pyrrolo[2,3-d]pyrimidin-7-yl)cyclopentyl)oxy)benzonitrile]", "pIC50": "< 3.70"}, {"smiles": "Cc1ncnc2c1ccn2[C@@H]1C[C@H](C(F)c2ccc(F)cc2)[C@@H](O)[C@H]1O", "note": "(single isomer, unassigned) [Example 21]", "pIC50": 6.66}, {"smiles": "Cc1ncnc2c1ccn2[C@H]1C[C@@H](Oc2ccccc2CN)[C@H](O)[C@@H]1O", "note": "[Example 63, (1R,2R,3R,5S)-3-(2-(aminomethyl)phenoxy)-5-(4-methyl-7H-pyrrolo[2,3-d]pyrimidin-7-yl)cyclopentane-1,2-diol]", "pIC50": 5.98}, {"smiles": "Cc1ncnc2c1ccn2[C@@H]1C[C@H]([C@@](C)(O)c2ccc(F)cc2)[C@@H](O)[C@H]1O", "note": "[Example 20, (1S,2R,3S,5R)-3-[(1R)-1-(4-fluorophenyl)-1-hydroxyethyl]-5-(4-methyl-7H-pyrrolo[2,3-d]pyrimidin-7-yl)cyclopentane-1,2-diol]", "pIC50": 4.77}, {"smiles": "Cc1ncnc2c1ccn2[C@@H]1C[C@H]([C@@H](O)c2ccc(Cl)cc2CN)[C@@H](O)[C@H]1O", "note": "[Example 54, (1S,2R,3R,5R)-3-((R)-(2-(aminomethyl)-4-chlorophenyl)(hydroxy)methyl)-5-(4-methyl-7H-pyrrolo[2,3-d]pyrimidin-7-yl)cyclopentane-1,2-diol]", "pIC50": 6.90}, {"smiles": "Cc1ncnc2c1ccn2C1C[C@H](Oc2cccc3c2CNC3)[C@@H](O)[C@H]1O", "note": "(stereo partly drawn) [Example 79, (1S,2S,3S,5R)-3-(2,3-dihydro-1H-isoindol-4-yloxy)-5-(4-methyl-7H-pyrrolo[2;3-d]pyrimidin-7-yl)cyclopentane-1,2-diol]", "pIC50": 7.08}, {"smiles": "CN(c1ccncn1)[C@@H]1C[C@H]([C@H](O)c2ccc(F)c(F)c2)[C@@H](O)[C@H]1O", "note": "[Example 31, (1S,2R,3R,5R)-3-[(S)-(3,4-difluorophenyl)(hydroxy)methyl]-5-[methyl(pyrimidin-4-yl)amino]cyclopentane-1,2-diol]", "pIC50": 6.33}, {"smiles": "Cc1ncnc2c1ccn2[C@@H]1C[C@H](Oc2c(F)cccc2F)[C@@H](O)[C@H]1O", "note": "[Example 74, (1S,2S,3S,5R)-3-(2,6-difluorophenoxy)-5-(4-methyl-7H-pyrrolo[2,3-d]pyrimidin-7-yl)cyclopentane-1,2-diol]", "pIC50": 4.20}, {"smiles": "Nc1ncnc2c1c(F)cn2[C@@H]1C[C@H](Oc2cccc3ccncc23)[C@@H](O)[C@H]1O", "note": "[Example 162]", "pIC50": 7.38}, {"smiles": "O[C@@H]1[C@H](O)[C@@H]([C@@H](O)c2ccc(F)c(F)c2)C[C@H]1Nc1ncnc2[nH]ccc12", "note": "[Example 28, (1S,2R,3R,5R)-3-[(R)-(3,4-difluorophenyl)(hydroxy)methyl]-5-(7H-pyrrolo[2,3-d]pyrimidin-4-ylamino)cyclopentane-1,2-diol]", "pIC50": 5.24}, {"smiles": "Nc1ncnc2c1c(F)cn2[C@@H]1C[C@H]([C@@H](O)c2ccc(F)cc2)[C@@H](O)[C@H]1O", "note": "[Example 26, (1R,2S,3R,5R)-3-(4-amino-5-fluoro-7H-pyrrolo[2,3-d]pyrimidin-7-yl)-5-[(R)-(4-fluorophenyl)(hydroxy)methyl]cyclopentane-1,2-diol]", "pIC50": 6.15}, {"smiles": "Cc1ncnc2c1ccn2[C@@H]1C[C@H]([C@@H](O)c2ccc(F)c(F)c2)[C@@H](O)[C@H]1O", "note": "[Example 4, (1S,2R,5R)-3-[(R)-(3,4-difluorophenyl) (hydroxy)methyl]-5-(4-methyl-7H-pyrrolo[2,3-d]pyrimidin-7-yl)cyclopentane-1,2-diol]", "pIC50": 6.17}, {"smiles": "Cc1cc(O[C@H]2C[C@@H](n3ccc4c(C)ncnc43)[C@H](O)[C@@H]2O)c2c(c1F)CCNC2", "note": "[Example 155, (1S,2S,3S,5R)-3-((5-fluoro-6-methyl-1,2,3,4-tetrahydroisoquinolin-8-yl)oxy)-5-(4-methyl-7H-pyrrolo[2,3-d]pyrimidin-7-yl)cyclopentane-1,2-diol]", "pIC50": 8.70}, {"smiles": "Cc1ncnc2c1ccn2[C@@H]1C[C@H](Oc2ccc(F)cc2C#N)[C@@H](O)[C@H]1O", "note": "[Example 68, 2-(((1S,2S,3S,4R)-2,3-dihydroxy-4-(4-methyl-7H-pyrrolo[2,3-d]pyrimidin-7-yl)cyclopentyl)oxy)-5-fluorobenzonitrile]", "pIC50": "< 3.70"}, {"smiles": "CN1CCc2c(cccc2O[C@H]2C[C@@H](n3cc(F)c4c(N)ncnc43)[C@H](O)[C@@H]2O)C1", "note": "[Example 116, (1S,2S,3R,5S)-3-(4-amino-5-fluoro-7H-pyrrolo[2,3-d]pyrimidin-7-yl)-5-((2-methyl-1,2,3,4-tetrahydroisoquinolin-5-yl)oxy)cyclopentane-1,2-diol]", "pIC50": 6.59}, {"smiles": "Cc1ncnc2c1ccn2[C@H]1C[C@H](Oc2cccc3c2C(=O)NCC3)[C@@H](O)[C@H]1O", "note": "[Example 76, 8-(((1S,2S,3S,4S)-2,3-dihydroxy-4-(4-methyl-7H-pyrrolo[2,3-d]pyrimidin-7-yl)cyclopentyl)oxy)-3,4-dihydroisoquinolin-1(2H)-one]", "pIC50": 3.84}, {"smiles": "Cc1ncnc2c1ccn2[C@@H]1C[C@H](Oc2ccc(Cl)cc2C(O)CN)[C@@H](O)[C@H]1O", "note": "(stereo partly drawn) [Example 149, (1S,2S,3S,5R)-3-(2-(2-amino-1-hydroxyethyl)-4-chlorophenoxy)-5-(4-methyl-7H-pyrrolo[2,3-d]pyrimidin-7-yl)cyclopentane-1,2-diol]", "pIC50": 7.16}, {"smiles": "Cc1ncnc(N(C)[C@@H]2C[C@H]([C@H](O)c3ccc(F)c(F)c3)[C@@H](O)[C@H]2O)n1", "note": "[Example 46, (1S,2R,3R,5R)-3-[(S)-(3,4-difluorophenyl)(hydroxy)methyl]-5-[methyl(4-methyl-1,3,5-triazin-2-yl)amino]cyclopentane-1,2-diol]", "pIC50": 6.53}, {"smiles": "Cc1ncnc2c1ccn2[C@@H]1C[C@H](Oc2cccc3ccncc23)[C@@H](O)[C@H]1O", "note": "[Example 172, (1S,2S,3S,5R)-3-(isoquinolin-8-yloxy)-5-(4-methyl-7H-pyrrolo[2,3-d]pyrimidin-7-yl)cyclopentane-1,2-diol]", "pIC50": 5.89}, {"smiles": "Cc1cc2c(c(O[C@H]3C[C@@H](n4cc(F)c5cnc(C)nc54)[C@H](O)[C@@H]3O)c1)CNCC2", "note": "[Example 127, (1S,2S,3R,5S)-3-(5-fluoro-2-methyl-7H-pyrrolo[2,3-d]pyrimidin-7-yl)-5-((6-methyl-1,2,3,4-tetrahydroisoquinolin-8-yl)oxy)cyclopentane-1,2-diol]", "pIC50": 8.05}, {"smiles": "CN(c1ccnc(N)n1)[C@@H]1C[C@H]([C@H](O)c2ccc(F)c(F)c2)[C@@H](O)[C@H]1O", "note": "[Example 39, (1R,2S,3R,5R)-3-[(2-aminopyrimidin-4-yl)(methyl)amino]-5-[(S)-(3,4-difluorophenyl)(hydroxy)methyl] cyclopentane-1,2-diol]", "pIC50": 6.94}, {"smiles": "Cc1ncnc2c1ccn2[C@@H]1C[C@H](Oc2cccc3c2CNC(C)C3)[C@@H](O)[C@H]1O", "note": "(single isomer, unassigned) [Example 185]", "pIC50": 8.22}]}]}
